Activity calls are given as the source filed them. The calls are words filed in the database; no cut-off is given here.
Tests used:
[1] = tested on: Glomerular mesangial cell; assay: Effect on high glucose-induced extracellular matrix accumulation in human glomerular mesangial cells transfected with Nrf2-siRNA assessed as decrease in collagen 4 level at 10 uM; assay type: functional, tissue-based
[2] = Suppression of high glucose-induced extracellular matrix accumulation in human glomerular mesangial cells assessed as collagen 4 level at 1 uM by ELISA (reference value: 221.7 +/- 14.1 %); assay type: functional; settings: Glomerular mesangial cell
[3] = Antioxidant activity against high glucose-induced oxidative stress in human glomerular mesangial cells assessed as effect on intracellular MDA level at 10 uM after 10 mins by thiobarbituric acid based absorbance analysis (reference value: 216 +/- 17.3 %); assay type: functional, Glomerular mesangial cell
[4] = Suppression of high glucose-induced extracellular matrix accumulation in human glomerular mesangial cells assessed as collagen 4 level at 10 uM by ELISA (reference value: 221.7 +/- 14.1 %); assay type: functional; settings: Glomerular mesangial cell
[5] = tested on: Glomerular mesangial cell; assay: Effect on high glucose-induced extracellular matrix accumulation in human glomerular mesangial cells transfected with Nrf2-siRNA assessed as decrease in fibronectin level at 10 uM; assay type: functional, tissue-based
[6] = Antioxidant activity against high glucose-induced oxidative stress in human glomerular mesangial cells assessed as effect on intracellular MDA level at 1 uM after 10 mins by thiobarbituric acid based absorbance analysis (reference value: 216 +/- 17.3 %); assay type: functional, Glomerular mesangial cell
[7] = Antioxidant activity against high glucose-induced oxidative stress in human glomerular mesangial cells assessed as effect on intracellular ROS level at 10 uM after 20 mins by DCFH-DA staining based fluorescence assay (reference value: 361 +/- 16.7 %); assay type: functional, Glomerular mesangial cell
[8] = target: T1, Nuclear factor erythroid 2-related factor 2 (Homo sapiens) (UniProt Q16236); assay: Activation of Nrf2 in human glomerular mesangial cells assessed as translocation of Nrf2 from cytoplasm to nucleus at 0.1 to 10 uM under high glucose condition by DAPI staining based fluorescence microscopy analysis; assay type: tissue-based; settings: Glomerular mesangial cell, filed as activator, dose microM 0.1-10
T1 sequence (whole entry): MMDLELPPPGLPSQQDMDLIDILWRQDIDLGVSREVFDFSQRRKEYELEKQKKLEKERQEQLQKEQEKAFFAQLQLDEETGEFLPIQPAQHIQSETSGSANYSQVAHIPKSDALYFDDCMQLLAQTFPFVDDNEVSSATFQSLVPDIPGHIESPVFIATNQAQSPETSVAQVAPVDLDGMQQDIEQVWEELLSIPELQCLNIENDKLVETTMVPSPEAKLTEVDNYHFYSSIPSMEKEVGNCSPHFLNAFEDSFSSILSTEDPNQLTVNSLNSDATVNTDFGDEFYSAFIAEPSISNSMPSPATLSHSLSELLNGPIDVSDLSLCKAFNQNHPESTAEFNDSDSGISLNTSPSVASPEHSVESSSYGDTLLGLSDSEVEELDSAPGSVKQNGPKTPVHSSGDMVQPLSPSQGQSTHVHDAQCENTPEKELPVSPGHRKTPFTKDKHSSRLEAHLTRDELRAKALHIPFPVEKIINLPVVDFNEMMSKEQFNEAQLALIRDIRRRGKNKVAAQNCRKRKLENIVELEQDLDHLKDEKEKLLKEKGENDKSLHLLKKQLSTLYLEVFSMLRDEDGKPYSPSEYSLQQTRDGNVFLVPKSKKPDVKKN

[9] = tested on: Glomerular mesangial cell; assay: Effect on high glucose-induced oxidative stress in human glomerular mesangial cells transfected with Nrf2-siRNA assessed as decrease in intracellular ROS level at 10 uM; assay type: functional, tissue-based
[10] = Suppression of high glucose-induced extracellular matrix accumulation in human glomerular mesangial cells assessed as laminin level at 10 uM by ELISA (reference value: 183.8 +/- 9.3 %); assay type: functional; settings: Glomerular mesangial cell
[11] = Suppression of high glucose-induced extracellular matrix accumulation in human glomerular mesangial cells assessed as effect on TGFbeta1 secretion at 10 uM by ELISA (reference value: 312.7 +/- 18.2 %); assay type: functional; settings: Glomerular mesangial cell
[12] = tested on: Glomerular mesangial cell; assay: Suppression of high glucose-induced extracellular matrix accumulation in human glomerular mesangial cells assessed as reduction in laminin level by ELISA; assay type: functional, tissue-based; settings: dose microM 0.1-10
[13] = Suppression of high glucose-induced extracellular matrix accumulation in human glomerular mesangial cells assessed as collagen 4 level at 0.1 uM by ELISA (reference value: 221.7 +/- 14.1 %); assay type: functional; settings: Glomerular mesangial cell
[14] = target: T1, Nuclear factor erythroid 2-related factor 2 (Homo sapiens); assay: Activation of Nrf2 in human glomerular mesangial cells assessed as increase in Nrf2 level at 0.1 to 10 uM under high glucose condition; assay type: tissue-based; settings: Glomerular mesangial cell, filed as activator, dose microM 0.1-10
[15] = Antioxidant activity against high glucose-induced oxidative stress in human glomerular mesangial cells assessed as effect on SOD activity at 10 uM by colorimetric assay relative to control; assay type: functional, Glomerular mesangial cell
[16] = target: T1, Nuclear factor erythroid 2-related factor 2 (Homo sapiens); assay: Activation of Nrf2 in human glomerular mesangial cells transfected with ARE luciferase reporter plasmid assessed as increase in ARE luciferase activity at 0.1 to 10 uM under high glucose condition by dual luciferase reporter gene assay; settings: Glomerular mesangial cell, filed as activator, dose microM 0.1-10
[17] = Suppression of high glucose-induced extracellular matrix accumulation in human glomerular mesangial cells assessed as fibronectin level at 10 uM by ELISA (reference value: 319.6 +/- 12.4 %); assay type: functional; settings: Glomerular mesangial cell
[18] = tested on: Glomerular mesangial cell; assay: Suppression of high glucose-induced extracellular matrix accumulation in human glomerular mesangial cells assessed as reduction in collagen 4 level by ELISA; assay type: functional, tissue-based; settings: dose microM 0.1-10
[19] = Suppression of high glucose-induced extracellular matrix accumulation in human glomerular mesangial cells assessed as laminin level at 0.1 uM by ELISA (reference value: 183.8 +/- 9.3 %); assay type: functional; settings: Glomerular mesangial cell
[20] = Suppression of high glucose-induced extracellular matrix accumulation in human glomerular mesangial cells assessed as laminin level at 1 uM by ELISA (reference value: 183.8 +/- 9.3 %); assay type: functional; settings: Glomerular mesangial cell
[21] = Antioxidant activity against high glucose-induced oxidative stress in human glomerular mesangial cells assessed as effect on intracellular MDA level at 0.1 uM after 10 mins by thiobarbituric acid based absorbance analysis (reference value: 216 +/- 17.3 %); assay type: functional, Glomerular mesangial cell
[22] = tested on: Glomerular mesangial cell; assay: Increase in total Nrf2 expression in human glomerular mesangial cells at 10 uM under high glucose condition by Western blot analysis; assay type: functional, tissue-based; settings: dose microM 0.1-10
[23] = Antioxidant activity against high glucose-induced oxidative stress in human glomerular mesangial cells assessed as effect on intracellular ROS level at 1 uM after 20 mins by DCFH-DA staining based fluorescence assay (reference value: 361 +/- 16.7 %); assay type: functional, Glomerular mesangial cell
[24] = Antioxidant activity against high glucose-induced oxidative stress in human glomerular mesangial cells assessed as effect on CAT activity at 10 uM by colorimetric assay relative to control; assay type: functional, Glomerular mesangial cell
[25] = tested on: Glomerular mesangial cell; assay: Effect on high glucose-induced oxidative stress in human glomerular mesangial cells transfected with Nrf2-siRNA assessed as decrease in intracellular MDA level at 10 uM; assay type: functional
[26] = tested on: Glomerular mesangial cell; assay: Suppression of high glucose-induced extracellular matrix accumulation in human glomerular mesangial cells assessed as decrease in CTGF secretion by ELISA; assay type: functional, tissue-based; settings: dose microM 0.1-10
[27] = Suppression of high glucose-induced extracellular matrix accumulation in human glomerular mesangial cells assessed as effect on TGFbeta1 secretion at 0.1 uM by ELISA (reference value: 312.7 +/- 18.2 %); assay type: functional; settings: Glomerular mesangial cell
[28] = Suppression of high glucose-induced extracellular matrix accumulation in human glomerular mesangial cells assessed as effect on TGFbeta1 secretion at 1 uM by ELISA (reference value: 312.7 +/- 18.2 %); assay type: functional; settings: Glomerular mesangial cell
[29] = Antioxidant activity against high glucose-induced oxidative stress in human glomerular mesangial cells assessed as effect on CAT activity at 0.1 uM by colorimetric assay relative to control; assay type: functional, Glomerular mesangial cell
[30] = Antioxidant activity against high glucose-induced oxidative stress in human glomerular mesangial cells assessed as effect on intracellular ROS level at 0.1 uM after 20 mins by DCFH-DA staining based fluorescence assay (reference value: 361 +/- 16.7 %); assay type: functional, Glomerular mesangial cell
[31] = Suppression of high glucose-induced extracellular matrix accumulation in human glomerular mesangial cells assessed as fibronectin level at 1 uM by ELISA (reference value: 319.6 +/- 12.4 %); assay type: functional; settings: Glomerular mesangial cell
[32] = Antioxidant activity against high glucose-induced oxidative stress in human glomerular mesangial cells assessed as effect on SOD activity at 0.1 uM by colorimetric assay relative to control; assay type: functional, Glomerular mesangial cell
[33] = tested on: Glomerular mesangial cell; assay: Suppression of high glucose-induced extracellular matrix accumulation in human glomerular mesangial cells assessed as reduction in fibronectin level by ELISA; assay type: functional, tissue-based; settings: dose microM 0.1-10
[34] = Suppression of high glucose-induced extracellular matrix accumulation in human glomerular mesangial cells assessed as effect on CTGF secretion at 10 uM by ELISA (reference value: 267.7 +/- 21.3 %); assay type: functional; settings: Glomerular mesangial cell
[35] = Cytotoxicity against human glomerular mesangial cells assessed as effect on cell viability at 400 uM after 1 hr by CCK8 assay; assay type: cell-based
[36] = tested on: Glomerular mesangial cell; assay: Cytoprotective activity against high glucose-induced self-limited proliferation in human glomerular mesangial cells at 0.1 to 10 uM measured after 3 hrs under high glucose condition by BrdU incorporation assay; assay type: functional, tissue-based; settings: dose microM 0.1-10, time 3.0 hrs
[37] = target: Kelch-like ECH-associated protein 1 (Homo sapiens) (UniProt Q14145); assay: Binding affinity to Keap1 in human glomerular mesangial cells assessed as disruption of Keap1-Nrf2 complex formation causing decrease in Keap1 level at 10 uM measured after overnight by co-immunoprecipitation analysis; assay type: tissue-based; settings: Glomerular mesangial cell, filed as activator, time 12.0 hrs
Chain of Kelch-like ECH-associated protein 1 (Homo sapiens) (Q14145 whole entry): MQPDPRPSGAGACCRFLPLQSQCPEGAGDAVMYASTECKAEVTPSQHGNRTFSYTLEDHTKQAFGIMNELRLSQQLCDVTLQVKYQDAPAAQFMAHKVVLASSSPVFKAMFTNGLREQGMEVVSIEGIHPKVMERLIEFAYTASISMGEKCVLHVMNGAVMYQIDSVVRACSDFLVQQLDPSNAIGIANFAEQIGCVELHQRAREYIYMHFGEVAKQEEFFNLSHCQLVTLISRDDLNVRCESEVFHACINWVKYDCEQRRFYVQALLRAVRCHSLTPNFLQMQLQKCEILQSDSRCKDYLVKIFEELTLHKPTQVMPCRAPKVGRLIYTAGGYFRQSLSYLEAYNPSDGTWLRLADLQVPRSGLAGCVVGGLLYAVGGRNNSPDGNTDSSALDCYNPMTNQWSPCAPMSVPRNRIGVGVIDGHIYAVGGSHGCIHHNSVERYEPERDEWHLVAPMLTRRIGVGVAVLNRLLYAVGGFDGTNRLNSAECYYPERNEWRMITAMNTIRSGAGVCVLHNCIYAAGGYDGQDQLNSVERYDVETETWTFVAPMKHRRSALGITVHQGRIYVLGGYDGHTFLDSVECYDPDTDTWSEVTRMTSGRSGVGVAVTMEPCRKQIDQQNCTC

[38] = tested on: Glomerular mesangial cell; assay: Suppression of high glucose-induced extracellular matrix accumulation in human glomerular mesangial cells assessed as decrease in TGFbeta1 secretion by ELISA; assay type: functional, tissue-based; settings: dose microM 0.1-10
[39] = Antioxidant activity against high glucose-induced oxidative stress in human glomerular mesangial cells assessed as effect on SOD activity at 1 uM by colorimetric assay relative to control; assay type: functional, Glomerular mesangial cell
[40] = tested on: Glomerular mesangial cell; assay: Cytoprotective activity against high glucose-induced decreased cell viability in human glomerular mesangial cells at 0.1 uM after 1 hr by CCK8 assay; assay type: functional, tissue-based
[41] = target: T1, Nuclear factor erythroid 2-related factor 2 (Homo sapiens); assay: Activation of Nrf2 in human glomerular mesangial cells assessed as increase in nuclear Nrf2 expression at 0.1 to 10 uM under high glucose condition by Western blot analysis; settings: Glomerular mesangial cell, filed as activator, dose microM 0.1-10
[42] = Suppression of high glucose-induced extracellular matrix accumulation in human glomerular mesangial cells assessed as fibronectin level at 0.1 uM by ELISA (reference value: 319.6 +/- 12.4 %); assay type: functional; settings: Glomerular mesangial cell
[43] = Antioxidant activity against high glucose-induced oxidative stress in human glomerular mesangial cells assessed as effect on CAT activity at 1 uM by colorimetric assay relative to control; assay type: functional, Glomerular mesangial cell
[44] = tested on: Glomerular mesangial cell; assay: Effect on high glucose-induced extracellular matrix accumulation in human glomerular mesangial cells transfected with Nrf2-siRNA assessed as decrease in laminin level at 10 uM; assay type: functional, tissue-based

## O=C(O)/C=C/c1cc(OC(=O)/C=C/c2ccc(O[C@@H]3O[C@H](CO)[C@@H](O)[C@H](O)[C@H]3O)cc2)cc(O[C@@H]2O[C@H](CO)[C@@H](O)[C@H](O)[C@H]2O)c1
[1]
  Activity: inactive
[2]
  level, % of control at 1 µM: 163%
[3]
  Activity: 135.9%
[4]
  level, % of control at 10 µM: 129%
[5]
  Activity: inactive
[6]
  Activity: 163.7%
[7]
  Activity: 190.8%
[8]
  Activity: Active
[9]
  Activity: inactive
[10]
  level, % of control at 10 µM: 124%
[11]
  level, % of control at 10 µM: 140%
[12]
  inhibition: Dose-dependent effect
[13]
  level, % of control at 0.1 µM: 193%
[14]
  Activity: Active
[15]
  Activity: 306.3%
[16]
  Activity: Active
[17]
  level, % of control at 10 µM: 179%
[18]
  inhibition: Dose-dependent effect
[19]
  level, % of control at 0.1 µM: 163%
[20]
  level, % of control at 1 µM: 148%
[21]
  Activity: 183.9%
[22]
  Activity: Active
[23]
  Activity: 287.2%
[24]
  Activity: 233.4%
[25]
  Activity: inactive
[26]
  inhibition: Dose-dependent effect
[27]
  level, % of control at 0.1 µM: 262%
[28]
  level, % of control at 1 µM: 213%
[29]
  Activity: 144.6%
[30]
  Activity: 323%
[31]
  level, % of control at 1 µM: 246%
[32]
  Activity: 155.7%
[33]
  inhibition: Dose-dependent effect
[34]
  level, % of control at 10 µM: 119%
[35]
  Activity: Non-Toxic
[36]
  Activity: Active
[37]
  Activity: Active
[38]
  inhibition: Dose-dependent effect
[39]
  Activity: 229.2%
[40]
  Activity: Active
[41]
  Activity: Active
[42]
  level, % of control at 0.1 µM: 282%
[43]
  Activity: 188.5%
[44]
  Activity: inactive

From ChEMBL document CHEMBL4699632, “Discovery of polypodiside as a Keap1-dependent Nrf2 activator attenuating oxidative stress and accumulation of extracellular matrix in glomerular mesangial cells under high glucose” (Bioorg Med Chem, 2020)
